Assay results reported in patent US20130028937A1 (LABORATORIOS DEL DR. ESTEVE, S.A., priority 2009, published 2013).

Assays:
[1] = test system: locomotor activity in mice; experiment: Locomotor activity in actimeter cages; settings: CD-1 mice, 30 min after administration
Description: Male, CD-1 mice (14-18 g, Charles River) were housed in a climate-controlled room for at least 5 days prior to testing. Food and water were available ad libitum up to test time.
The dosing volume was 10 ml/kg.
Eight standard actimeter cages (Linton Instrumentation, Inc.) equipped with infrared beams for the detection of movement were used. After administering the compounds, the animals were returned to their homecages and then placed in the locomotor activity cages 30 min later. Moving time was measured during 30 min, with readings performed every 5 min.

[2] = test system: incision-induced mechanical allodynia in the rat hind paw; experiment: Mechanical allodynia (von Frey filaments) in postoperative pain model after paw incision; type: in vivo; settings: for efficacy on mechanical allodynia (in words): dose-response curve
Description: Following plantar incision, rats show decreases in response thresholds graded von Frey filaments (mechanical hypersensitivity) (Brennan et al., Pain 1996, 64, 493).
Male, Wistar rats (120-160 g, Harlan, Italy) were housed in a climate-controlled room for at least 5 days prior to testing. Food and water were available ad libitum up to test time.
The dosing volume was 10 ml/kg. The antiallodynic response of the animal was subsequently evaluated 60 min after drug administration.
Rats were anaesthetized with 3% isofluorane for veterinary use, employing an Ohmeda vaporizer and an anaesthesia chamber. Anaesthesia was kept during the surgical operation by a tube which directs the isoflurane vapours to the animal's snout. Once the rats were anaesthetised, they were laid down in a prone position and their right hindpaws were cleaned out with alcohol. Then, a 1 cm longitudinal incision was made with a number 23 scalpel, through skin and fascia of the plantar aspect of the paw, starting 0.5 cm from the proximal edge of the heel and extending toward the toes. Therefore, both superficial (skin) and deep (muscle) tissues and nerves were injured. Finally, the skin of the paw was stitched with a suturing stitch with breaded silk (3.0) and the wound was cleaned out with povidone.
The drugs were tested 4 hours after the surgery (plantar incision); 60 minutes after the administration of the product, one behavioural endpoint was evaluated: mechanical hypersensitivity or allodynia.
Mechanical allodynia was tested using von Frey filaments. Animals were placed in methacrylate cylinders on an elevated surface, with metallic mesh floor perforated in order to apply the filaments. After an acclimation period of about 30 minutes within the cylinders, both hindpaws were stimulated (the injured and the non-injured paw, serving the latter as control), starting with the lowest force filament (0.4 g) and reaching up to a 15 g filament. The animal's response to pain was manifested by the withdrawal of the paw as a consequence of the painful stimulus caused by a filament. The pressure (force in grams) threshold eliciting the withdrawal of the paw was recorded.
The method is based on the comparison of the effect of several doses of the combination at a determined ratio with respect to the effects achieved using different doses of each of the two agents. […] Where it is established that Zt<Zadd for a specific fixed-ratio, then that composition has a synergistic effect. The theoretical additive dose (Zadd) for the co-crystal was then calculated and compared with the experimental ED50 of the combination (Zt) as described in Tallarida, Drug synergism 2001, 298, 865-872 [10].

[3] = Wistar rats, intraperitoneal, 4 hours after plantar incision, 60 min after administration

| Compound | effect on locomotor activity (moving time) ([1]; intraperitoneal, 160 mg/kg, p<0.05 compared with vehicle) | effect on locomotor activity (moving time) ([1]; intraperitoneal, doses lower than 160 mg/kg) | efficacy on mechanical allodynia (in words) [2, 3] | effect on locomotor activity (moving time) ([1]; intraperitoneal, 80 mg/kg, p<0.001) | effect on locomotor activity (moving time) ([1]; intraperitoneal, doses lower than 80 mg/kg) | maximum efficacy on mechanical allodynia ([2]; Wistar rats, intraperitoneal, 4 hours after plantar incision, 60 min after administration, ceiling effect) [%] | effect on locomotor activity (moving time) ([1]; intraperitoneal, 20, 40, 80 and 160 mg/kg, p>0.05) | inhibition of mechanical allodynia compared with each single drug at equivalent doses ([2]; Wistar rats, intraperitoneal, 60 min after administration) | isobolographic analysis of interaction (Zt vs Zadd) ([2]; molar ratio 1:1, experimental ED50 (Zt) vs theoretical Zadd, p>0.05 Student's t-test) |
| --- | --- | --- | --- | --- | --- | --- | --- | --- | --- |
| Cc1ccc(-c2cc(C(F)(F)F)nn2-c2ccc(S(N)(=O)=O)cc2)cc1 [Celecoxib, 4-[5-(4-methylphenyl)-3-(trifluoromethyl)pyrazol-1-yl]benzenesulfonamide] | significant side-effects decreasing | No effects | full efficacy | – | – | – | – | – | – |
| COc1ccc(C(CN(C)C)C2(O)CCCCC2)cc1 (racemic) [Venlafaxine, (rac)-1-[2-dimethylamino-1-(4-methoxyphenyl)-ethyl]cyclohexanol] | – | – | – | significant side-effects increasing | no statistically significant effects | 58.40 | – | – | – |
| COc1ccc(C(CN(C)C)C2(O)CCCCC2)cc1.Cc1ccc(-c2cc(C(F)(F)F)nn2-c2ccc(S(N)(=O)=O)cc2)cc1 (racemic) [Celecoxib—(rac)-venlafaxine co-crystal (1:1)] | – | – | full efficacy | – | – | – | did not show any significant side-effect | superior benefit | additive interaction |
